The target in test [1] is T1, P-selectin (Homo sapiens, UniProt P16109).
T1 construct: consists of the human lectin domain, the EGF domain, and two complement repeats of the human selectins; made in house
The test can be described thus: HL-60 Cell Binding to P-selectin Rg. Particulars: HL-60 cells binding to P-selectin Rg coated wells. Type of test: cell-based. As to the method: 2. HL-60 Cell Binding to P- and E-Selectin RG
Receptor globulin (Rg) Construction
The chimeric P-and E-selectin receptor globulin (Rg) consists of the human lectin domain, the EGF domain, and two complement repeats of the human selectins fused to the hinge, CH1 and CH2 domains of human IgG1. These proteins were prepared as described by Aruffo, et al., Cell (1991) 67: 35-44; Walz, et al., Science (1990) 250, 1132-1135.
Cell binding assay for Rg
The HL-60 cell line, obtained from the American Type Culture Collection, ATCC No. CCL240, was employed to investigate P-selectin Rg binding. Assays were done in 96-well tissue culture dishes. The wells were first coated with 0.5 ug goat anti-human Fc antiserum overnight, and nonspecific binding sites were blocked by incubation of the wells with 1% nonfat dry milk in phosphate buffered saline (PBS containing 0.9 mM CaCl2 and 0.8 mM MgSO4) for 30 minutes. The Rg was then bound to the anti Fc-coated wells by incubating 50 ng in 50 ul of PBS for two hours. Cells, washed twice and resuspended in PBS to remove traces of medium components, were labeled with 10 uM calcein acetoxy methyl ester for 30 minutes at 3×10^7 cells per ml at room temperature. Serum-containing medium (RPMI with 20% fetal calf serum) was added, and the cells washed, followed by resuspension in PBS and a further spin. The labeled cells, resuspended in PBS, were added to twice washed Rg-containing wells at 200,000 per well. Following a 30 minute incubation with slow shaking, the wells were aspirated and washed three times with PBS to remove unbound cells. To certain wells were added known numbers of cells for determination of a standard curve of fluorescent units per cell. The fluorescence on the plate was quantitated using a fluorescent plate reader. Following subtraction of a blank representing the binding of cells to non-Rg containing wells (<5000 cells), the specific binding to P- or E- selectin was determined.
Inhibitors of cell binding
Test compounds were prepared by dissolution to a final concentration of 20 mg/ml in dimethyl sulfoxide (DMSO), diluted in PBS to 2 mg/ml, and briefly sonicated prior to use. The Rg coated wells were preincubated at room temperature for 15 minutes with the inhibitor, and 200,000 cells were added to yield the final indicated inhibitor concentration in 160 ul of PBS. The data is obtained as percent inhibition of specific binding: [formula] and a plot of dose vs. percent inhibition of Rg binding is generated in which IC50 (μM) is calculated and reported in Table 1.

In test [2] the target is T1, P-selectin. As to the kind of experiment: P-Selectin Adhesion Receptor Binding: cell-free ELISA, inhibition of P-selectin binding to immobilized sulfatides. Conditions: immobilized sulfatide, pH 8.0. From the text:
1. P-Selectin Adhesion Receptor Binding
P-selectin (GMP140, granule membrane protein-140, PADGEM, or CD62) is a calcium-dependent transmembrane protein found in alpha granules of endothelial cells and platelets. It is an inducible selectin produced on activated endothelium and platelets which recognize alpha(2-3)sialylated and alpha(1-3)fucosylated lactosaminoglycans which include the sequence, Lewis x (Zhou et al., J. Cell. Biol., (1991) 115 (2): 557-564) and sulfatides (3-sulfated galactosyl ceramides, Aruffo, et al., Cell (1991) 67: 35-44). P-selectin may be responsible for the initial adhesion events between endothelium and neutrophils as evidenced by leukocyte rolling induced by P-selectin in flow cells (Lawrence, M., and T. Springer, Cell (1991) 65: 859-873).
Based on the availability of soluble forms of P-selectin prepared as described by Aruffo, A., et al., Cell, 67, 35-44 (1991), a binding ELISA based assay modified from Foxall, et al., J., Cell Biol., 117, 895-902 (1992) was developed to measure inhibitors of P-selectin binding to immobilized sulfatides. Such inhibitors were tested in the assay described below.
0.1 ml of sulfatide (SIGMA) or lysosulfatide (SIGMA) each at 1 μg/ml in MeOH were added to the wells of a 96-well ELISA plate (ProBind, Falcon) and allowed to dry overnight at room temperature. The next day the antigen coated plates were blocked for 1.5 hours at room temperature with 5% BSA (ICN) in buffer containing 20mM Hepes and 0.15 M NaCl, pH 8.0. Wild type P-selectin and mutants thereof were first mixed with HRP-conjugated goat anti-human IgG (Fisher Scientific), serially diluted and then incubated for 30 minutes at 37° C. in buffer containing 20 mM Hepes, 0.15 M NaCl, 1% BSA and 0.8 mM CaCl2, pH 8.0 prior to addition to the BSA blocked plates. Following the 30 minute preincubation, the fusion protein-HRP conjugate immunocomplexes were incubated on the blocked antigen coated plates for 45 minutes at 37° C. in the presence or absence of the test compounds and then washed to remove any unbound proteins. Bound complexes were detected by addition of substrate buffer (95 mM NaOAc.3H2 O, 5 mM citric acid monohydrate, 1.4 mM urea/H2O2) containing 3, 3', 5, 5' Tetramethylbenzidine (SIGMA). Reactions were stopped by the addition of 3N sulfuric acid and the absorbance read on an ELISA reader at dual wavelengths 450 and 630 nm. The efficacy of these compounds was compared to that of sulfatide (positive control) or to lysosulfatide (negative control). The data is obtained as percent inhibition of specific binding [formula] and a plot of dose vs. percent inhibition of Rg binding is generated in which IC50 (μM) is calculated and reported as cell free data in Table 1.

These results are taken from US5565433A, “Sulfated β-glycolipid derivatives as cell adhesion inhibitors” (Bristol-Myers Squibb Company, priority 1996, dated 1996).

SMILES strings stand for the structures.

T1 sequence (P16109 with tags, fused parts or gaps limits assumed): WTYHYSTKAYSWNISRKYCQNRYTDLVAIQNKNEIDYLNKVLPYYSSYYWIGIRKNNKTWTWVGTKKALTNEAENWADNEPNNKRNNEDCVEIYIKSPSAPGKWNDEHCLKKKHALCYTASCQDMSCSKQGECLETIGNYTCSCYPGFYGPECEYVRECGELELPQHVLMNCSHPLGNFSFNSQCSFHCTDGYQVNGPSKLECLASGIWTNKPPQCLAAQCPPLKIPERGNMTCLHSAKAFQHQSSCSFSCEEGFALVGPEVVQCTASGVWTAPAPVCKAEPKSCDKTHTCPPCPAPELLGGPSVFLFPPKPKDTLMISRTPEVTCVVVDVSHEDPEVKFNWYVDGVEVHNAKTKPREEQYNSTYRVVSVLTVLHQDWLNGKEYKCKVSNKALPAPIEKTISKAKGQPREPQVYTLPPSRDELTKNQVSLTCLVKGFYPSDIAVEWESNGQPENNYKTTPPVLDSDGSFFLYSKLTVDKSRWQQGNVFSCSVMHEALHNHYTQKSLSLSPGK

Usually IC50 stands for the point on the concentration scale where inhibition reaches its midpoint. A low value points to inhibition by little substance. On to `CCCCCCCC/C=C\CCCCCCCCCCCCCC(=O)N[C@@H](CO[C@@H]1O[C@H](COS(=O)(=O)O)[C@H](OC(=O)c2ccccc2)[C@H](OC(=O)c2ccccc2)[C@H]1OS(=O)(=O)O)[C@@H](/C=C/CCCCCCCCCCCCC)OC(=O)c1ccccc1` [Example 7, (2S,3R,4E)-3-Benzoyloxy-1-[3,4-di-O-benzoyl-2,6-di-O-(sodiumoxysulfonyl)-β-D-galactopyranosyloxy]-2-(cis-15-tetracosenoylamino)-4-octadecene], for which the results for the IC50 on P-selectin [1] and at P-selectin [2] were 11 µM and 1 µM, respectively.

`CCCCCCCCCCCCC/C=C/[C@@H](O)[C@H](CO[C@@H]1O[C@H](COS(=O)(=O)O)[C@H](OS(=O)(=O)O)[C@H](O)[C@H]1O)NC(=O)CCCCCCCCCCCCCCC` [Example 2, (2S,3R,4E)-3-Hydroxy-2-hexadecanoylamino-1-[4,6-di-O-(sodiumoxysulfonyl)-β-D-galactopyranosyloxy]-4-octadecene]: the IC50 at P-selectin [1] was found to be 39 µM; at P-selectin [2], 1.7 µM.
